One assay addresses T1, human TLR8 (Homo sapiens, UniProt Q9NR97).
T1 construct: endogenous in cells; host or cells: primary human monocytes (CD14 microbeads) from buffy coats of healthy donors
T1 sequence (Q9NR97 27-1041): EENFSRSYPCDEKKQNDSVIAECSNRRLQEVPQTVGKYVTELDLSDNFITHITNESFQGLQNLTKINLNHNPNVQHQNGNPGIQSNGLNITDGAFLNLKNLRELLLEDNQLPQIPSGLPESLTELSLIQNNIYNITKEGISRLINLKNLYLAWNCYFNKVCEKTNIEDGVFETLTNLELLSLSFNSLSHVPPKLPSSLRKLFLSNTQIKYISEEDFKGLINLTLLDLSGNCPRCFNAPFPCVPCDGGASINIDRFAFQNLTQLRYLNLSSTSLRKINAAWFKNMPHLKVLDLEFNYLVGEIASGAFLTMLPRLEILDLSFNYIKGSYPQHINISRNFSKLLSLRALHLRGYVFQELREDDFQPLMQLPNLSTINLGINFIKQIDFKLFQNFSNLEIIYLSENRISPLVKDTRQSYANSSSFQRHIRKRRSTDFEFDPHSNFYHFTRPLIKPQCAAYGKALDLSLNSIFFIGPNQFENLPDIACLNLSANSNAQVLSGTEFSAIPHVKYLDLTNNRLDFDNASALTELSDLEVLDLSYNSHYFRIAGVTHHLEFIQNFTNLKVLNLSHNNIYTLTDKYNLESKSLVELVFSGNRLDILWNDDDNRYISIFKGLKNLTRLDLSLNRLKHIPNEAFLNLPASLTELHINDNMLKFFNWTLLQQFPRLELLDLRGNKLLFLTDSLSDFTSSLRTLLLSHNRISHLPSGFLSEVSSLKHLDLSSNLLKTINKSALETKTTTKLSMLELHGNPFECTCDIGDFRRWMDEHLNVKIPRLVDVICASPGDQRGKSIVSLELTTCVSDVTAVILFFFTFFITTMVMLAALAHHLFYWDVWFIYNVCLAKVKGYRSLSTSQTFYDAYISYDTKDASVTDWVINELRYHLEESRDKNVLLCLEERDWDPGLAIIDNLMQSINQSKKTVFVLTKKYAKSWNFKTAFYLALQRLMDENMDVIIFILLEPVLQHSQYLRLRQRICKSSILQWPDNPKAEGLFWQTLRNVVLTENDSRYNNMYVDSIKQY
Kind of assay: Inhibition of human TLR8 in human monocytes (TNF-alpha / IL-1 beta ELISA). The class given is cell-based. Conditions: for IC50: human monocytes, agonist ORN8L 100 μg/mL, 24 hours. In short, it runs like this: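 Primary human monocytes from donor buffy coats (~200,000 cells/well) given serially diluted compound, then ORN8L RNA oligonucleotide agonist at 100 μg/mL final. After 24 h at 37 °C, supernatant TNF-alpha and/or IL-1 beta measured by ELISA; IC50 from the concentration-response of cytokine release.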
(In general: An ELISA detects its analyte on a solid surface through an enzyme-linked reagent.)

Another assay concerns the target T2, human TLR9 (Homo sapiens, UniProt Q9NR96).
T2 construct: endogenous in cells; host or cells: primary human B cells (CD19 microbeads) from buffy coats of healthy donors
T2 sequence (Q9NR96 26-1032): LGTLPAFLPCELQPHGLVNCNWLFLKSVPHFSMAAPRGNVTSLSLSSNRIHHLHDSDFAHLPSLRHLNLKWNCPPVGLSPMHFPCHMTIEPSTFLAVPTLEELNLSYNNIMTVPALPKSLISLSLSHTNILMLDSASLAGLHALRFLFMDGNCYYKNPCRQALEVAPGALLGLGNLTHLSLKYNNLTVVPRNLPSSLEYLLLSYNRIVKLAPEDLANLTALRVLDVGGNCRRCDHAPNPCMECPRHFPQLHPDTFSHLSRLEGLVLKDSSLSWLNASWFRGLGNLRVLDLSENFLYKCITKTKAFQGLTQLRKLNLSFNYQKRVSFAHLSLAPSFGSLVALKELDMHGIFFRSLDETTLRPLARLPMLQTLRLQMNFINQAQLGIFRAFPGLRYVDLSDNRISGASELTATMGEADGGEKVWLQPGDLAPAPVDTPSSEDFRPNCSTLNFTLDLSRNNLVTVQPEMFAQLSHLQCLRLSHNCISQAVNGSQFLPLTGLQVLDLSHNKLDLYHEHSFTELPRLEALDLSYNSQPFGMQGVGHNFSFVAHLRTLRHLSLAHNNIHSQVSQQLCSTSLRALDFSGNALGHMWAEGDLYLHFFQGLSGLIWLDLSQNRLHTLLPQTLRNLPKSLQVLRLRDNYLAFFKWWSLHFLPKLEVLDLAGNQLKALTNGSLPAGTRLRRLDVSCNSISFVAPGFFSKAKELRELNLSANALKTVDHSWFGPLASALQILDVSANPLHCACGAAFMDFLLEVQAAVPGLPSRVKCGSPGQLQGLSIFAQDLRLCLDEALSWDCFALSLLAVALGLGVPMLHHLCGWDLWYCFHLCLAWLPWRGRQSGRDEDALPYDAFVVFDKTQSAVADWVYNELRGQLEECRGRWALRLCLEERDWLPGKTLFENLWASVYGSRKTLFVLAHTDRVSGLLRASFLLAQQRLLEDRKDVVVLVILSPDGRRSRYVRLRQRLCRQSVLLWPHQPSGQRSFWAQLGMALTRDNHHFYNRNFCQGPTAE
The assay is described as follows: Inhibition of human TLR9 in human B cells (IL-6 ELISA). The class given is cell-based. The settings on record: for IC50: human B cells, agonist 1018 ISS 1 μM, IL-6 readout, 48 hours, range about 0.01 to 10 μM, read-out: Human TLR9 IC50; for inhibits TLR9-dependent responses (in words): summary statement of the description. The method in brief:
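Primary human B cells (CD19-isolated from donor buffy coats), ~300,000 per well, treated with compound (about 0.01–10 μM, some 0.001–30 μM) then 1 μM CpG oligonucleotide 1018 ISS. After 48 hours at 37° C, supernatant IL-6 measured by ELISA; IC50 from concentration-response of TLR9-dependent activity.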

[1] abbreviates: TNF-alpha readout, read-out: Human TLR8 IC50 TNF-a.
[2] abbreviates: IL-1 beta readout, read-out: Human TLR8 IC50 IL-1b.

The text below walks through data of patent US11370794B2, “Toll-like receptor antagonist compounds and methods of use” (Dynavax Technologies Corporation, priority 2016, dated 2022).

Where two headings read alike, the source gives them in different places.

`Cc1ccc(-n2nc3c(N4CCC(C(=O)NCCN(C)C)CC4)nnc(C)c3c2C(F)(F)F)cc1` [compound 63, N-(2-(dimethylamino)ethyl)-1-(4-methyl-2-(p-tolyl)-3-(trifluoromethyl)-2H-pyrazolo[3,4-d]pyridazin-7-yl)piperidine-4-carboxamide]: the IC50 at human TLR8 (setting [1]) is not below 20000 nM; on human TLR9, 5580 nM.

For `CCN(CC)CCCNC(=O)C1CCN(c2nnc(C)c3c(C)n(-c4ccccc4)nc23)CC1` [7x, N-(3-(diethylamino)propyl)-1-(3,4-dimethyl-2-phenyl-2H-pyrazolo[3,4-d]pyridazin-7-yl)piperidine-4-carboxamide], the IC50 was more than 10000 nM on human TLR8 (setting [2]), more than 10000 nM on human TLR8 (setting [1]) and 368 nM on human TLR9.

With `Cc1ccc(-n2nc3c(N4CCC(C(=O)N5CCC6(CNC6)C5)CC4)nnc(C)c3c2C)cc1` [compound 74, (1-(3,4-dimethyl-2-(p-tolyl)-2H-pyrazolo[3,4-d]pyridazin-7-yl)piperidin-4-yl)(2,6-diazaspiro[3.4]octan-6-yl)methanone], the IC50 at human TLR8 (setting [1]) was not below 20000 nM; at human TLR9, 2590 nM.

Regarding `Cc1ccc(-n2cc3cnnc(N4CCC(CCC(=O)NCCN(C)C)CC4)c3n2)cc1` [compound 61, N-(2-(dimethylamino)ethyl)-3-(1-(2-(p-tolyl)-2H-pyrazolo[3,4-d]pyridazin-7-yl)piperidin-4-yl)propanamide], the IC50 was 4850 nM on human TLR8 (setting [1]) and 9 nM on human TLR9.

Take `Cc1ccc(-n2nc3c(N4CCC(C(=O)NCCCN(C)C)CC4)nnc(I)c3c2C)cc1` [compound 41, N-(3-(dimethylamino)propyl)-1-(4-iodo-3-methyl-2-(p-tolyl)-2H-pyrazolo[3,4-d]pyridazin-7-yl)piperidine-4-carboxamide]: the results for the IC50 on human TLR8 (setting [1]) and at human TLR9 were not below 20000 nM and 793 nM, respectively.

For the compound `Cc1nnc(N2CCC(C(=O)N3CCN(C)CC3)CC2)c2nn(-c3ccccc3)c(C)c12` [59x, (1-(3,4-dimethyl-2-phenyl-2H-pyrazolo[3,4-d]pyridazin-7-yl)piperidin-4-yl)(4-methylpiperazin-1-yl)methanone], the IC50 at human TLR8 (setting [2]) was 2110 nM; at human TLR8 (setting [1]), 2040 nM; on human TLR9 it was 59 nM.

In the case of `Cc1ccc(-n2nc3c(N4CCC(C(=O)N5CCC(N6CCOCC6)CC5)CC4)nnc(C)c3c2C)cc1` [compound 69, (1-(3,4-dimethyl-2-(p-tolyl)-2H-pyrazolo[3,4-d]pyridazin-7-yl)piperidin-4-yl)(4-morpholinopiperidin-1-yl)methanone], the IC50 stood at 3840 nM at human TLR8 (setting [1]) and 253 nM on human TLR9.

As for `Cc1nnc(N2CCC(C(=O)NCCCN(C)C)CC2)c2nn(-c3ccsc3)c(C)c12` [compound 24, 1-(3,4-dimethyl-2-(thiophen-3-yl)-2H-pyrazolo[3,4-d]pyridazin-7-yl)-N-(3-(dimethylamino)propyl)piperidine-4-carboxamide], the IC50 on human TLR8 (setting [1]) was not below 20000 nM; at human TLR9, 400 nM.

For the compound `Cc1nnc(N2CCC(C(=O)NCCN3CCCCC3C)CC2)c2nn(-c3ccccc3)c(C)c12` (stereo not shown) [24x, 1-(3,4-dimethyl-2-phenyl-2H-pyrazolo[3,4-d]pyridazin-7-yl)-N-(2-(2-methylpiperidin-1-yl)ethyl)piperidine-4-carboxamide], the values for the IC50 at human TLR8 (setting [2]), at human TLR8 (setting [1]) and on human TLR9 were more than 10000 nM, more than 10000 nM and 32 nM, respectively. Besides, the “inhibits TLR9-dependent responses (in words)” value at human TLR9 is recorded as “inhibit”.

As for `Cc1ccc(-n2cc3cnnc(N4CCC(C(=O)NCCN5CCOCC5)CC4)c3n2)cc1` [compound 64, N-(2-morpholinoethyl)-1-(2-(p-tolyl)-2H-pyrazolo[3,4-d]pyridazin-7-yl)piperidine-4-carboxamide], the figures for the IC50 on human TLR8 (setting [1]) and at human TLR9 were not below 20000 nM and 557 nM, respectively.

Regarding `CCN(CC)C1CCN(C(=O)C2CCN(c3nncc4cn(-c5ccc(C)cc5)nc34)CC2)CC1` [compound 59, (4-(diethylamino)piperidin-1-yl)(1-(2-(p-tolyl)-2H-pyrazolo[3,4-d]pyridazin-7-yl)piperidin-4-yl)methanone], the IC50 on human TLR8 (setting [1]) was determined as 770 nM; on human TLR9, 6 nM.

For the compound `Cc1ccc(-n2nc3c(N4CCC(CCC(=O)NC5CN(C)C5)CC4)nnc(C)c3c2C)cc1` [compound 66, 3-(1-(3,4-dimethyl-2-(p-tolyl)-2H-pyrazolo[3,4-d]pyridazin-7-yl)piperidin-4-yl)-N-(1-methylazetidin-3-yl)propanamide], the figures for the IC50 on human TLR8 (setting [1]) and on human TLR9 were not below 20000 nM and 182 nM, respectively.

In the case of `Cc1ccc(-n2nc3c(N4CCC(C(=O)NCCCc5ccccc5)CC4)nnc(C)c3c2C)cc1` [2-6], the IC50 at human TLR8 (setting [2]), on human TLR8 (setting [1]) and at human TLR9 was more than 10000 nM each time.

For the compound `CCN1CCN(C(=O)C2CCN(c3nnc(C)c4c(C)n(-c5ccc(C)cc5)nc34)CC2)CC1` [51x, (1-(3,4-dimethyl-2-(p-tolyl)-2H-pyrazolo[3,4-d]pyridazin-7-yl)piperidin-4-yl)(4-ethylpiperazin-1-yl)methanone], the IC50 on human TLR8 (setting [2]) was 330 nM; on human TLR8 (setting [1]), 230 nM; at human TLR9, 6 nM. Also, at human TLR8 (summary statement of the description), the “inhibits TLR8-dependent responses (in words)” value is recorded as “inhibit”. Further, the “inhibits TLR9-dependent responses (in words)” value against human TLR9 is “inhibit”.

As for `Cc1ccc(-n2cc3cnnc(N4CCCC(C(=O)NCCN(C)C)C4)c3n2)cc1` (stereo not shown) [compound 47, N-(2-(dimethylamino)ethyl)-1-(2-(p-tolyl)-2H-pyrazolo[3,4-d]pyridazin-7-yl)piperidine-3-carboxamide], the IC50 on human TLR8 (setting [1]) stood at 2620 nM; at human TLR9 it was 27 nM.

Take `Cc1ccc(-n2nc3c(N4CCC(C(=O)NCCCN5CCCC5)CC4)nnc(C)c3c2C)cc1` [15x, 1-(3,4-dimethyl-2-(p-tolyl)-2H-pyrazolo[3,4-d]pyridazin-7-yl)-N-(3-(pyrrolidin-1-yl)propyl)piperidine-4-carboxamide]: the IC50 turned out to be 4600 nM on human TLR8 (setting [1]) and 408 nM at human TLR9.

For `Cc1nnc(N2CCCC(C(=O)NCCCN3CCOCC3)C2)c2nn(-c3ccccc3)c(C)c12` (stereo not shown) [49x, 1-(3,4-dimethyl-2-phenyl-2H-pyrazolo[3,4-d]pyridazin-7-yl)-N-(3-morpholinopropyl)piperidine-3-carboxamide], the IC50 on human TLR8 (setting [2]) came out at 3940 nM; at human TLR8 (setting [1]), 3560 nM; on human TLR9, 29 nM.

By IC50 is commonly meant the concentration at which inhibition is half-maximal.
